Results from patent publication US20240366624A1, “METHODS AND COMPOSITIONS FOR TREATING THROMBOTIC DISEASE” (Washington University, priority 2023, published 2024).

System: platelets
Assay: Platelet activation and aggregation, platelet source not stated
Assay type: cell-based
Conditions: 5-10 microM
Text: As described herein, small molecule ERO1α inhibitors were identified by performing a high throughput screen using a ChemDiv library. […] Furthermore, intravenous injection of B112-5 reduced the infarct volume in a mouse model of ischemic stroke.

SMILES: O=C(CSc1nc(O)cc(O)n1)N1c2ccccc2Sc2ccccc21 [B12-5]
- platelet activation and aggregation: significantly inhibited
